Data published in ChEMBL document CHEMBL3994575, “Helixconstraints and amino acid substitution in GLP-1 increase cAMP and insulin secretion but not beta-arrestin 2 signaling” (Eur J Med Chem, 2017).
pEC50, pKi: −log10 of the molar value. Positions of bridges follow the written chain, without caps; N, C: chain ends. Residues, ends and D or L forms follow the SMILES beside them.

Tests used:
[1] = target: T1, Glucagon-like peptide 1 receptor (Rattus norvegicus, UniProt P32301); assay: Agonist activity at GLP1R in rat INS-1 cells assessed as increase in glucose-stimulated insulin secretion after 1 hr by HTRF assay; format: cell-based
T1 sequence (P32301 whole entry): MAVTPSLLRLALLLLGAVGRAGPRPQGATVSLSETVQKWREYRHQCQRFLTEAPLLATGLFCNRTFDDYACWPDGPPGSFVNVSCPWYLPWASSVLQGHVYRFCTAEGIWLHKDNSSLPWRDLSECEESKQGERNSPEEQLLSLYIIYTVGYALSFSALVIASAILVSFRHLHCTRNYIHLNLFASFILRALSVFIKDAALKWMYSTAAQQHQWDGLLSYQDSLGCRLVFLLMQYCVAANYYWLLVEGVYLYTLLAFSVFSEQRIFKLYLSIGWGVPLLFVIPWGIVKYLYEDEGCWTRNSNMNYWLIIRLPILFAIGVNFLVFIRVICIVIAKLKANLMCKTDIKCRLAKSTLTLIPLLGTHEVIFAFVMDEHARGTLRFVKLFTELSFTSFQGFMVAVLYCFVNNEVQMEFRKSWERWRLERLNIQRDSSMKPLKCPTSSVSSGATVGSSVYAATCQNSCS

[2] = target: T2, Glucagon-like peptide 1 receptor (Homo sapiens, UniProt P43220); assay: Displacement of [125I]-GLP (7 to 36 residues) from human GLP1R expressed in CHO cell membranes incubated for 30 mins measured after 10 hrs by scintillation proximity assay
[3] = target: T2, Glucagon-like peptide 1 receptor; assay: Agonist activity at human GLP1R expressed in CHO cells assessed as cAMP accumulation incubated for 30 mins by LANCE assay; format: functional, cell-based
[4] = target: T2, Glucagon-like peptide 1 receptor; assay: Agonist activity at human GLP1R expressed in CHOK1 cells assessed as induction of beta-galactosidase-tagged beta-arrestin2 recruitment incubated for 90 mins by PathHunter enzyme complementation assay; format: cell-based

T2 sequence (P43220 whole entry, the tested form may be a part): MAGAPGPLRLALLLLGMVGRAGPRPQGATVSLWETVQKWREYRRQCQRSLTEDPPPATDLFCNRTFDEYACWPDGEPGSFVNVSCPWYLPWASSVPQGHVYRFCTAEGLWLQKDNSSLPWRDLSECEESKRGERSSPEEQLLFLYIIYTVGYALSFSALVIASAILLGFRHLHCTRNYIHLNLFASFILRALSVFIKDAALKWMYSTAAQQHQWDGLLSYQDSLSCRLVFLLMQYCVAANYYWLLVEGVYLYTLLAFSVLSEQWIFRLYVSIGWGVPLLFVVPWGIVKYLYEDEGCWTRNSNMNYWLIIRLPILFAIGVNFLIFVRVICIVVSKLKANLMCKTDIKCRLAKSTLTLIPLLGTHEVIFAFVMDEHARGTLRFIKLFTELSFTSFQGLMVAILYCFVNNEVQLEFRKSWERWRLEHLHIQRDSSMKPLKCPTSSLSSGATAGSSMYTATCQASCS

Structure (SMILES)	pEC50 [1]	pKi [2]	pEC50 [3]	pEC50 [4]
CC[C@H](C)[C@H](NC(=O)[C@H](Cc1ccccc1)NC(=O)[C@H](CCC(=O)O)NC(=O)[C@H](CCCCN)NC(=O)[C@H](C)NC(=O)[C@H](C)NC(=O)[C@H](CCC(N)=O)NC(=O)CNC(=O)[C@H](CCC(=O)O)NC(=O)[C@H](CC(C)C)NC(=O)[C@H](Cc1ccc(O)cc1)NC(=O)[C@H](CO)NC(=O)[C@H](Cc1ccc(O)cc1)NC(=O)[C@@H](NC(=O)[C@H](CC(=O)O)NC(=O)[C@H](CO)NC(=O)[C@@H](NC(=O)[C@H](Cc1ccccc1)NC(=O)[C@@H](NC(=O)CNC(=O)[C@H](CCC(=O)O)NC(=O)[C@H](C)NC(=O)[C@@H](N)Cc1cnc[nH]1)[C@@H](C)O)[C@@H](C)O)C(C)C)C(=O)N[C@@H](C)C(=O)N[C@@H](Cc1c[nH]c2ccccc12)C(=O)N[C@@H](CC(C)C)C(=O)N[C@H](C(=O)N[C@@H](CCCCN)C(=O)NCC(=O)N[C@@H](CCCNC(=N)N)C(=O)NCC(N)=O)C(C)C	7.80	–	–	–
CC[C@H](C)[C@H](NC(=O)[C@H](Cc1ccccc1)NC(=O)[C@H](CCC(=O)O)NC(=O)[C@H](CCCCN)NC(=O)[C@H](C)NC(=O)[C@H](C)NC(=O)[C@H](CCC(N)=O)NC(=O)CNC(=O)[C@H](CCC(=O)O)NC(=O)[C@H](CC(C)C)NC(=O)[C@H](Cc1ccc(O)cc1)NC(=O)[C@@H]1CC(=O)NCCCC[C@H](NC(=O)[C@@H](NC(=O)[C@H](Cc2ccccc2)NC(=O)[C@@H](NC(=O)CNC(=O)[C@H](CCC(=O)O)NC(=O)[C@H](C)NC(=O)[C@@H](N)Cc2cnc[nH]2)[C@@H](C)O)[C@@H](C)O)C(=O)N[C@@H](CC(=O)O)C(=O)N[C@@H](C(C)C)C(=O)N[C@@H](CO)C(=O)N1)C(=O)N[C@@H](C)C(=O)N[C@@H](Cc1c[nH]c2ccccc12)C(=O)N[C@@H](CC(C)C)C(=O)N[C@H](C(=O)N[C@@H](CCCCN)C(=O)NCC(=O)N[C@@H](CCCNC(=N)N)C(=O)NCC(N)=O)C(C)C (H-HAEGTFTKDVSDYLEGQAAKEFIAWLVKGRG-NH2; lactam 8-12)	7.30	–	–	–
CC[C@H](C)[C@H](NC(=O)[C@H](Cc1ccccc1)NC(=O)[C@H](CCC(=O)O)NC(=O)[C@H](CCCCN)NC(=O)[C@H](C)NC(=O)[C@H](C)NC(=O)[C@H](CCC(N)=O)NC(=O)[C@H](C)NC(=O)[C@H](CCC(=O)O)NC(=O)[C@@H]1CC(=O)NCCCC[C@H](NC(=O)[C@H](CC(=O)O)NC(=O)[C@H](CO)NC(=O)[C@@H](NC(=O)[C@H](Cc2ccccc2)NC(=O)[C@@H](NC(=O)CNC(=O)[C@H](CCC(=O)O)NC(=O)[C@H](C)NC(=O)[C@@H](N)Cc2cnc[nH]2)[C@@H](C)O)[C@@H](C)O)C(=O)N[C@@H](CO)C(=O)N[C@@H](CO)C(=O)N[C@@H](Cc2ccc(O)cc2)C(=O)N1)C(=O)N[C@H]1CCCCNC(=O)C[C@@H](C(=O)NCC(=O)N[C@@H](CCCNC(=N)N)C(=O)NCC(N)=O)NC(=O)[C@H](C(C)C)NC(=O)[C@H](CC(C)C)NC(=O)[C@H](Cc2c[nH]c3ccccc23)NC1=O (H-HAEGTFTSDKSSYDEAQAAKEFIKWLVDGRG-NH2; lactam 10-14, 24-28)	9.60	8.85	11.40	7.96
CC[C@H](C)[C@H](NC(=O)[C@H](Cc1ccccc1)NC(=O)[C@H](CCC(=O)O)NC(=O)[C@H](CCCCN)NC(=O)[C@H](C)NC(=O)[C@H](C)NC(=O)[C@H](CCC(N)=O)NC(=O)CNC(=O)[C@@H]1CCCN1C(=O)[C@H](CC(C)C)NC(=O)[C@H](Cc1ccc(O)cc1)NC(=O)[C@H](CO)NC(=O)[C@H](CO)NC(=O)[C@@H](NC(=O)[C@H](CC(=O)O)NC(=O)[C@H](CO)NC(=O)[C@@H](NC(=O)[C@H](Cc1ccccc1)NC(=O)[C@@H](NC(=O)CNC(=O)[C@H](CCC(=O)O)NC(=O)[C@H](C)NC(=O)[C@@H](N)Cc1cnc[nH]1)[C@@H](C)O)[C@@H](C)O)C(C)C)C(=O)N[C@H]1CCCCNC(=O)C[C@@H](C(=O)NCC(=O)N[C@@H](CCCNC(=N)N)C(=O)NCC(N)=O)NC(=O)[C@H](C(C)C)NC(=O)[C@H](CC(C)C)NC(=O)[C@H](Cc2c[nH]c3ccccc23)NC1=O (H-HAEGTFTSDVSSYLPGQAAKEFIKWLVDGRG-NH2; lactam 24-28)	6.89	< 7.30	7.70	< 6.00

Results, then the compound that gave them:

pEC50 [1]	pKi [2]	pEC50 [3]	pEC50 [4]	Structure (SMILES)
–	9.33	10.96	8.34	CC[C@H](C)[C@H](NC(=O)[C@H](Cc1ccccc1)NC(=O)[C@H](CCC(=O)O)NC(=O)[C@H](CCCCN)NC(=O)[C@H](C)NC(=O)[C@H](C)NC(=O)[C@H](CCC(N)=O)NC(=O)[C@H](C)NC(=O)[C@H](CCC(=O)O)NC(=O)[C@H](CC(C)C)NC(=O)[C@H](Cc1ccc(O)cc1)NC(=O)[C@H](CO)NC(=O)[C@H](CO)NC(=O)[C@H](Cc1ccc(O)cc1)NC(=O)[C@H](CC(=O)O)NC(=O)[C@H](CO)NC(=O)[C@@H](NC(=O)[C@H](Cc1ccccc1)NC(=O)[C@@H](NC(=O)CNC(=O)[C@H](CCC(=O)O)NC(=O)[C@H](C)NC(=O)[C@@H](N)Cc1cnc[nH]1)[C@@H](C)O)[C@@H](C)O)C(=O)N[C@H]1CCCCNC(=O)C[C@@H](C(=O)NCC(=O)N[C@@H](CCCNC(=N)N)C(=O)NCC(N)=O)NC(=O)[C@H](C(C)C)NC(=O)[C@H](CC(C)C)NC(=O)[C@H](Cc2c[nH]c3ccccc23)NC1=O (H-HAEGTFTSDYSSYLEAQAAKEFIKWLVDGRG-NH2; lactam 24-28)
–	9.31	10.64	8.47	CC[C@H](C)[C@H](NC(=O)[C@H](Cc1ccccc1)NC(=O)[C@H](CCC(=O)O)NC(=O)[C@H](CCCCN)NC(=O)[C@H](C)NC(=O)[C@H](C)NC(=O)[C@H](CCC(N)=O)NC(=O)CNC(=O)[C@H](CCC(=O)O)NC(=O)[C@H](CC(C)C)NC(=O)[C@H](Cc1ccc(O)cc1)NC(=O)[C@H](CO)NC(=O)[C@H](CO)NC(=O)[C@H](Cc1ccc(O)cc1)NC(=O)[C@H](CC(=O)O)NC(=O)[C@H](CO)NC(=O)[C@@H](NC(=O)[C@H](Cc1ccccc1)NC(=O)[C@@H](NC(=O)CNC(=O)[C@H](CCC(=O)O)NC(=O)[C@H](C)NC(=O)[C@@H](N)Cc1cnc[nH]1)[C@@H](C)O)[C@@H](C)O)C(=O)N[C@H]1CCCCNC(=O)C[C@@H](C(=O)NCC(=O)N[C@@H](CCCNC(=N)N)C(=O)NCC(N)=O)NC(=O)[C@H](C(C)C)NC(=O)[C@H](CC(C)C)NC(=O)[C@H](Cc2c[nH]c3ccccc23)NC1=O (H-HAEGTFTSDYSSYLEGQAAKEFIKWLVDGRG-NH2; lactam 24-28)
